Consider 3 compounds from BindingDB's records for doi:10.1021/jm00177a018 (1980).

The assay has as its target Aldehyde oxidase (Oryctolagus cuniculus). The assay can be described thus: Tested for its ability to inhibit rabbit liver aldehyde oxidase catalyzed oxidation of N-methyl-nicotinamide (NMN).
On to `CCOP(=O)(CC=O)OCC`, for which the Ki (usually the dissociation constant of the complex between target and ligand, obtained from inhibition or displacement) is 300 µM. In the case of `CCOC(CCP(=O)(OCC)OCC)OCC`, the inhibitory constant (Ki) was found to be 200 µM. For the compound `CCOP(=O)(CCC=O)c1ccccc1` (stereo not drawn), the Ki was determined as 100 µM.
